We go through four compounds from US6011013A, “Contraceptive compositions and methods” (Oregon Health Sciences University, priority 1998, dated 2000).

Some results are limits rather than exact numbers.

For one data set, the system named is PKA. The experiment in a line: PKA activity of sperm treated whole, then washed and lysed. The class given is cell-based, bovine. To be noted: 50 μM. The protocol:
(§1) (A). Bovine caudal and caput sperm were incubated in buffer A in the presence or absence of 50 μM CDA and/or 50 μM H-89. When sperm were treated with both CDA and H-89, the H-89 was added 15 min prior to CDA. Motility was assessed by CASMA at 15 min following treatment. (B) Bovine sperm were incubated as described for A and then assessed for PKA activity. Where indicated, 10 μM cAMP was added to the PKA assay.
PKA Activity PKA was assayed as previously described (Carr et al., J. Biol. Chem. 268:20729-20732, 1993) with minor changes. Whole caput or caudal sperm were treated with 2-chloro-2-deoxyadenosine (50 μM), H-89 (50 μM), or both for 30 min. at 37° C. The sperm were then washed twice in ice cold homogenization buffer supplemented with protease inhibitors, benzamidine (10 mM), leupeptin (4 μg/ml), and N-tosyl-L-phenylalanine chloromethyl ketone (TPCK) (100 μM), and sonicated for one min. Reaction mixtures (20 uL total) contained 250 μM kemptide, 250 μM (γ-^32 P)ATP, 25 mM Na3 VO4, 50 mM 3-[N-morpholino]propanesulfonic acid (MOPS) (pH=7.0), 10 mM MgCl2, 0.25 mg/ml BSA and where indicated, 10 μM cAMP. Assays were initiated by addition of labeled ATP, incubated for 2 min at 30° C., and stopped by addition of 30 μL of 1N HCl. […] The papers were then analyzed by Cerenkov counting. […]

The subject of data set [1] is bovine caudal epididymal sperm. Put plainly: Sperm motility by computer-automated sperm motility analysis (CASMA), Forward Motility Index. Type of data set: cell-based. The protocol:
(A) Sperm were incubated in buffer A containing s-Ht31 at 5 μM (circle), 10 μM (square) or 50 μM (diamond) or a control peptide, S-Ht31-P at 50 μM (cross). Motility was assessed at the times indicated by computer-automated sperm motility analysis (CASMA) as described in Experimental Procedures. (B) Sperm were incubated for 5 min in buffer A containing increasing concentrations of S-Ht31 (diamonds) or control peptide S-Ht31-P (triangle) and motility was assessed.
(A) Bovine caudal epididymal sperm were suspended in buffer A supplemented with 2 mM calcium (+Calcium) or 2 mM EGTA (-Calcium). Motility was assessed by CASMA at 5, 30 and 60 min following addition of either water (control) or 10 μM s-Ht31. (B) Sperm were incubated in buffer A containing 2 mM calcium and 50 mM bicarbonate (where indicated). Motility was assessed at 5, 30 and 60 min following addition of either water (control) or 10 μM s-Ht31.
as §1
Sperm Preparation. […]
Sperm Motility Measurement. Head motility parameters were determined as previously described (Vijayaraghavan et al., Biol. Reprod 54:709-718, 1996; Stephens et al., Biol. Reprod. 38:577-586, 1988). […] After bulk fluid movement had subsided, six different locations on the slide were recorded. The videotaped segments were analyzed by a computerized image-analysis system (CASMA) as previously described (Vijayaraghavan et al., Biol. Reprod. 54:709-718, 1996; Stephens et al., Biol. Reprod. 38:577-586, 1988). […] FMI is a product of percent motile (%M, percent of sperm moving at velocity greater than […]) and average velocity (Va, the five-point smoothed average of the head positions through at least 20 of the 30 frames analyzed).

In the next data set the test system is bovine caput sperm. The experiment in a line: Caput sperm motility by CASMA. Type of data set: cell-based. To be noted: 50 μM H-89 added 15 min prior to 50 μM CDA. The protocol: (A). Bovine caudal and caput sperm were incubated in buffer A in the presence or absence of 50 μM CDA and/or 50 μM H-89. When sperm were treated with both CDA and H-89, the H-89 was added 15 min prior to CDA. Motility was assessed by CASMA at 15 min following treatment. (B) Bovine sperm were incubated as described for A and then assessed for PKA activity. Where indicated, 10 μM cAMP was added to the PKA assay. Sperm Preparation. Testes from mature bulls with intact tunica were obtained from a local slaughter house and sperm from caput or caudal epididymis were isolated and washed as previously described (Vijayaraghavan et al., Biol. Reprod. 32:489-500, 1985). […] Head motility parameters were determined as previously described (Vijayaraghavan et al., Biol. Reprod 54:709-718, 1996; Stephens et al., Biol. Reprod. 38:577-586, 1988). […] After bulk fluid movement had subsided, six different locations on the slide were recorded. The videotaped segments were analyzed by a computerized image-analysis system (CASMA) as previously described (Vijayaraghavan et al., Biol. Reprod. 54:709-718, 1996; Stephens et al., Biol. Reprod. 38:577-586, 1988). […] FMI is a product of percent motile (%M, percent of sperm moving at velocity greater than […]) and average velocity (Va, the five-point smoothed average of the head positions through at least 20 of the 30 frames analyzed).

Another data set deals with sperm. Type of data set: cell-based, bovine. Here is the method: To determine if S-Ht31 affects sperm viability or structural integrity, the vital dyes SYBR-green and rhodamine 123 were added to sperm before and after treatment with S-Ht31. Only viable, intact cells take up these dyes.

As to `Nc1nc(Cl)nc2c1ncn2[C@H]1C[C@H](O)[C@@H](CO)O1` [CDA, 2-chloro-2-deoxyadenosine], the “increase of basal PKA activity” value with PKA (both caudal and caput sperm, absence of cAMP) is recorded as “approximately 60%”. The “sperm motility under conditions where sperm PKA is inhibited” value in data set [1] (with H-89) is “still induce or stimulate sperm motility”.
In the case of `O=S(=O)(NCCNCC=Cc1ccc(Br)cc1)c1cccc2cnccc12` [H-89, N-[2-(p-bromocinnamylamino)ethyl]-5-isoquinoline-sulfonamide], the “effect of preincubation on motility induction by CDA in caput sperm” value in the data set with bovine caput sperm was “unaffected”. In addition, the “effect on cellular PKA activity” value in the data set on PKA (sperm washed before lysis) is “strongly inhibited PKA activity”. In addition, the “effect on sperm motility stimulated by CDA” value in data set [1] (50 μM H-89, 50 μM CDA) is “had no effect”. For the same compound, the inhibition at 50 µM in data set [1] (Bos taurus, Sperm, 50 μM, read-out: inhibition of basal sperm motility) was not above 50%.
Consider `C[C@@H]1CC[C@@]2(OC1)O[C@H]1[C@@H](O)[C@H]3[C@@H]4CC[C@H]5C[C@@H](O[C@@H]6O[C@H](CO)[C@H](O[C@@H]7O[C@H](CO)[C@@H](O)[C@H](O[C@@H]8OC[C@@H](O)[C@H](O)[C@H]8O)[C@H]7O[C@@H]7O[C@H](CO)[C@H](O)[C@H](O[C@@H]8O[C@H](CO)[C@@H](O)[C@H](O)[C@H]8O)[C@H]7O)[C@H](O)[C@H]6O)[C@H](O)C[C@]5(C)[C@H]4CC[C@]3(C)[C@H]1[C@@H]2C` [digitonin], for which the “release of dyes from sperm loaded with BCECF or Fura 2 (plasma membrane integrity)” value in the data set on sperm is given as “caused release of these dyes”.
For `CCCCCCCCCCCCCCCCCC(=O)N[C@@H](CC(=O)O)C(=O)N[C@@H](CC(C)C)C(=O)N[C@H](C(=O)N[C@@H](CCC(=O)O)C(=O)N[C@@H](CCC(=O)O)C(=O)N[C@@H](C)C(=O)N[C@@H](C)C(=O)N[C@@H](CO)C(=O)N[C@@H](CCCNC(=N)N)C(=O)N[C@H](C(=O)N[C@H](C(=O)N[C@@H](CC(=O)O)C(=O)N[C@@H](C)C(=O)N[C@H](C(=O)N[C@H](C(=O)N[C@@H](CCC(=O)O)C(=O)N[C@@H](CCC(N)=O)C(=O)N[C@H](C(=O)N[C@@H](CCCCN)C(=O)N[C@@H](C)C(=O)N[C@@H](C)C(=O)NCC(=O)N[C@@H](C)C(=O)N[C@@H](Cc1ccc(O)cc1)C(=O)O)C(C)C)[C@@H](C)CC)C(C)C)C(C)C)[C@@H](C)CC)[C@@H](C)CC` [s-Ht31], in the data set with sperm, the “release of dyes from sperm loaded with BCECF or Fura 2 (plasma membrane integrity)” value is given as “did not compromise the integrity of the plasma membrane”; the “sperm viability and plasma membrane integrity (uptake of vital dyes SYBR-green and rhodamine 123)” value is “did not decrease viability or disrupt the integrity of the sperm plasma membrane”.

By inhibition is commonly meant the change of the read-out against control, counted positive when it falls.
